The source of these data is patent publication US20100203156A1, “XENON AS A TREATMENT FOR HEMOGLOBINOPATHY” (priority 2009, published 2010).

A value given as a limit tells only on which side of the number the result lay.

In data set [1] the test system is spinal dorsal horn neurons. The settings on record: cited from earlier work; for nociception depending on age: various ages / the young.
The next data set addresses HbS (Homo sapiens, UniProt P68871+P69905, E7V). The settings on record: cited from earlier work.
The target in data set [2] is T1, hemoglobin (Homo sapiens, UniProt P68871+P69905). In words: association rates of gases for hemoglobin. The class given is binding.
The target of data set [3] is T1, hemoglobin. The conditions noted are these: cited from earlier work.
For data set [4] the following is noted: cited from earlier work.
The conditions of data set [5]: with oxygen, human adults; cited from earlier work.
The conditions of data set [6]: inhaled xenon; cited from earlier work.

On to `[N-]=[N+]=O` [nitrous oxide], for which, in data set [1], the “nociception depending on age” value is “ineffective in the young”.

Regarding `CCC` [propane], on HbS, the “effect on HbS aggregation” value was “prevent and reverse HbS aggregation”.

Consider `CC` [ethane], for which the “effect on HbS aggregation” value at HbS was “prevent and reverse HbS aggregation”.

Take `[Xe]` [xenon]: the “xenon association rate for hemoglobin relative to CO” value at hemoglobin [2] (versus CO) stood at 10 times faster. On hemoglobin [2] (versus O2), the “xenon association rate for hemoglobin relative to O2” value is on record as 1-2 times faster. Also, the “xenon in blood carried by hemoglobin” value at hemoglobin [3] (during xenon inhalation, estimated) is 45%. Also, the “amount of xenon bound by reduced and oxyhemoglobin” value on hemoglobin [3] (reduced versus oxyhemoglobin) is recorded as “approximately the same”. For the same compound, in data set [4] (human, in vivo), the “analgesia to cold pain” value is “not to cold pain”; the “analgesia to ischemic, electrical, mechanical, and heat stimulation” value is on record as “produced analgesia”; the “analgesic potency compared with nitrous oxide” value is on record as “comparable or superior to nitrous oxide”. Besides, the “response to experimentally induced, standardized forms of pain” value in data set [4] (inhaled dose of ~20%, healthy volunteers) is “significantly decrease the response”. The “nociceptive responsiveness of spinal dorsal horn neurons” value in data set [1] (animal studies) was “directly inhibited”. Besides, the “nociception depending on age” value in data set [1] is reported as “reduce nociception at various ages”. Moreover, in data set [5], the “1 MAC, inhaled fractional concentration” value is recorded as 0.63-0.73. The “inhaled concentration at which nausea and vomiting has been observed” value in data set [6] is listed as over 30%.

As for `C` [methane], the “effect on HbS aggregation” value on HbS was “prevent and reverse HbS aggregation”.
